Active and inactive are the calls of the source.
Assays:
[1] = biological target: T1, Long-chain-fatty-acid--AMP ligase FadD28 (Mycobacterium tuberculosis, UniProt P9WQ59); assay: Fluorescence polarization aasay to screen for inhibitors that compete for the binding of FadD28 to a bisubstrate Measured in Biochemical System Using Plate Reader - 2147-01_Inhibitor_Dose_CherryPick_Activity.; assay type: functional, Mycobacterium tuberculosis H37Rv
T1 sequence (P9WQ59 whole entry): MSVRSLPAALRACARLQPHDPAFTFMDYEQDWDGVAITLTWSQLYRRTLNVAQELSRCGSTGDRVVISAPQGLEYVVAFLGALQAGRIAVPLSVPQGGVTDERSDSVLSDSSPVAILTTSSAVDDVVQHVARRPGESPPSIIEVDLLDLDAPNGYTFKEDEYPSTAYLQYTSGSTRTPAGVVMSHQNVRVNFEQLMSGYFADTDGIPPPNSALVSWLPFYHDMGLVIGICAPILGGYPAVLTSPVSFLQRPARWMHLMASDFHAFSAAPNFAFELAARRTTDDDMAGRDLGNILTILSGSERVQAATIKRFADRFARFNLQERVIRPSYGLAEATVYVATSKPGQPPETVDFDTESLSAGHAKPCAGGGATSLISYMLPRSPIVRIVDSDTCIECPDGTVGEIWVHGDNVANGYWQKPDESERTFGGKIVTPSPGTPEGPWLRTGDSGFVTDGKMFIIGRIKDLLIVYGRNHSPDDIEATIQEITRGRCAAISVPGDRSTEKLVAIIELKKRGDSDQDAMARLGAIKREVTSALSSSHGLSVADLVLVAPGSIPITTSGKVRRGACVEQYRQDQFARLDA

Aminopeptidase N = biological target: T2, Aminopeptidase N (Plasmodium falciparum FcB1/Columbia, UniProt O96935); assay: malaria alanyl aminopeptidase activity blockers – biochemical, fluorogenic H-Leu-NHMec substrate, 1536-well (AID 1445); parameters: species or system Plasmodium falciparum 3D7, 3D7
T2 sequence (O96935 whole entry): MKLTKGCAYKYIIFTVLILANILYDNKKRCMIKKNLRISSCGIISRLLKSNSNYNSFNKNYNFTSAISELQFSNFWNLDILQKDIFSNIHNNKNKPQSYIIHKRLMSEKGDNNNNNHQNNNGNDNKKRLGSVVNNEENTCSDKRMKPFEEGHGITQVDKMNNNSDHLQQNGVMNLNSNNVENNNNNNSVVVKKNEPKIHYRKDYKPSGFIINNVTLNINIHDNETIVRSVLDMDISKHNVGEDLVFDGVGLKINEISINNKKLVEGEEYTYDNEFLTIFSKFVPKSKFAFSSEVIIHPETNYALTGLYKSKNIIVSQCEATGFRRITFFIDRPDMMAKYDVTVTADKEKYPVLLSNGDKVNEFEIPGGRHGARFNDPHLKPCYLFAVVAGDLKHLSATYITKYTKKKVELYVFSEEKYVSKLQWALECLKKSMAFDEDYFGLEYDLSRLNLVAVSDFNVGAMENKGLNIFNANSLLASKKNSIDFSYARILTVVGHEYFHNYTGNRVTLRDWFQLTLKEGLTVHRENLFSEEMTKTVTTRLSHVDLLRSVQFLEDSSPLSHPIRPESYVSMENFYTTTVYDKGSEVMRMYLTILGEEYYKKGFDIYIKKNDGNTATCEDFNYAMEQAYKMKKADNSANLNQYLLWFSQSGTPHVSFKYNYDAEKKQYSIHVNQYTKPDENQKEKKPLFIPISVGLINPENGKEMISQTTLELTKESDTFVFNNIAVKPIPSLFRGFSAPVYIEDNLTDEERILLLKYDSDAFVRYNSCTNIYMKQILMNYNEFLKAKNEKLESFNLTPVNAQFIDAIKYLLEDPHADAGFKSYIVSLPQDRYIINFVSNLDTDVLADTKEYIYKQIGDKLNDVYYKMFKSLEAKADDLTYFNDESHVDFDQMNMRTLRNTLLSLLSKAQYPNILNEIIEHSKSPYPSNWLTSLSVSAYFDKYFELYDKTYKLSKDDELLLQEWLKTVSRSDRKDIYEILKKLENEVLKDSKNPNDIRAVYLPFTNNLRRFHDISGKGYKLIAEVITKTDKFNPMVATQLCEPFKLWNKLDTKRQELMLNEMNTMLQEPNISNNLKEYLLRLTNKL

Insulin receptor = Insulin receptor (Homo sapiens, UniProt P06213); assay type: functional;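 further: insulin receptor kinase tested as one member of a kinome-wide kinase panel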
[2] = biological target: Testis-specific serine/threonine-protein kinase 2 (Homo sapiens, UniProt Q96PF2); assay type: functional;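 further: part of the Navigating the Kinome panel, target entry STK22B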
[3] = biological target: Mitogen-activated protein kinase 1 (Homo sapiens, UniProt P28482); assay type: functional
[4] = biological target: Tyrosine-protein kinase FRK (Homo sapiens, UniProt P42685); assay type: functional;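 further: FRK tested as one member of a kinome panel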
[5] = biological target: Homeodomain-interacting protein kinase 2 (Homo sapiens, UniProt Q9H2X6); assay type: functional;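 further: measured within a kinome-wide kinase profiling panel, HIPK2 being one panel member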
[6] = biological target: Calcium/calmodulin-dependent protein kinase type II subunit delta (Homo sapiens, UniProt Q13557); assay type: functional
[7] = biological target: Serine/threonine-protein kinase DCLK1 (Homo sapiens, UniProt O15075); assay type: functional;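 further: affinity for DCLK1 (listed as DCAMKL1) measured as one member of a kinome-wide kinase profiling panel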
[8] = biological target: Serine/threonine-protein kinase N2 (Homo sapiens, UniProt Q16513); assay type: functional
[9] = biological target: Protein kinase C delta type (Homo sapiens, UniProt Q05655); assay type: functional
[10] = biological target: RAC-gamma serine/threonine-protein kinase (Homo sapiens, UniProt Q9Y243); assay type: functional
[11] = biological target: cGMP-dependent protein kinase 1 (Homo sapiens, UniProt Q13976); assay type: functional;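 further: value from a kinome panel screen with PRKG1 as the panel member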
[12] = biological target: Tyrosine-protein kinase Fer (Homo sapiens, UniProt P16591); assay type: functional;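 further: FER tested as one member of a kinome panel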
[13] = biological target: Protein kinase C iota type (Homo sapiens, UniProt P41743); assay type: functional;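 further: measured within a kinome-wide kinase panel, PRKCI as panel member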
[14] = biological target: Proto-oncogene tyrosine-protein kinase ROS (Homo sapiens, UniProt P08922); assay type: functional;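 further: ROS1 tested as one member of a kinome-wide kinase panel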
Ephrin type-A receptor 2 = Ephrin type-A receptor 2 (Homo sapiens, UniProt P29317); assay type: functional;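 further: EPHA2 tested as one member of a kinome-wide kinase panel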
[15] = biological target: Mitogen-activated protein kinase 13 (Homo sapiens, UniProt O15264); assay type: functional
[16] = biological target: Mitogen-activated protein kinase kinase kinase kinase 5 (Homo sapiens, UniProt Q9Y4K4); assay type: functional;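 further: measured as one member of a kinome-spanning kinase panel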

Sequence of Calcium/calmodulin-dependent protein kinase type II subunit delta (Q13557 whole entry): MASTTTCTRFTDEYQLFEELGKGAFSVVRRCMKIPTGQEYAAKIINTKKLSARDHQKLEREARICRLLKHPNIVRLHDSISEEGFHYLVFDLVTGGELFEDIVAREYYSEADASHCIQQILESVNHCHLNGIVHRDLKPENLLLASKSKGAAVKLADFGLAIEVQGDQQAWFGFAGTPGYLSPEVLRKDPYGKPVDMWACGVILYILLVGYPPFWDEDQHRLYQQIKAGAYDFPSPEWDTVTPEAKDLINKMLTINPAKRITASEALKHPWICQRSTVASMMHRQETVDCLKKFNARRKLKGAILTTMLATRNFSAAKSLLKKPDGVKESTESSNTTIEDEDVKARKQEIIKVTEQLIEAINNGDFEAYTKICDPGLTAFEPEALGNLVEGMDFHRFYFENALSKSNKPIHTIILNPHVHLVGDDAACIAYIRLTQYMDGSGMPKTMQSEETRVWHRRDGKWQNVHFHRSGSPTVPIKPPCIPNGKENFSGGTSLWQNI
Sequence of Homeodomain-interacting protein kinase 2 (Q9H2X6 whole entry): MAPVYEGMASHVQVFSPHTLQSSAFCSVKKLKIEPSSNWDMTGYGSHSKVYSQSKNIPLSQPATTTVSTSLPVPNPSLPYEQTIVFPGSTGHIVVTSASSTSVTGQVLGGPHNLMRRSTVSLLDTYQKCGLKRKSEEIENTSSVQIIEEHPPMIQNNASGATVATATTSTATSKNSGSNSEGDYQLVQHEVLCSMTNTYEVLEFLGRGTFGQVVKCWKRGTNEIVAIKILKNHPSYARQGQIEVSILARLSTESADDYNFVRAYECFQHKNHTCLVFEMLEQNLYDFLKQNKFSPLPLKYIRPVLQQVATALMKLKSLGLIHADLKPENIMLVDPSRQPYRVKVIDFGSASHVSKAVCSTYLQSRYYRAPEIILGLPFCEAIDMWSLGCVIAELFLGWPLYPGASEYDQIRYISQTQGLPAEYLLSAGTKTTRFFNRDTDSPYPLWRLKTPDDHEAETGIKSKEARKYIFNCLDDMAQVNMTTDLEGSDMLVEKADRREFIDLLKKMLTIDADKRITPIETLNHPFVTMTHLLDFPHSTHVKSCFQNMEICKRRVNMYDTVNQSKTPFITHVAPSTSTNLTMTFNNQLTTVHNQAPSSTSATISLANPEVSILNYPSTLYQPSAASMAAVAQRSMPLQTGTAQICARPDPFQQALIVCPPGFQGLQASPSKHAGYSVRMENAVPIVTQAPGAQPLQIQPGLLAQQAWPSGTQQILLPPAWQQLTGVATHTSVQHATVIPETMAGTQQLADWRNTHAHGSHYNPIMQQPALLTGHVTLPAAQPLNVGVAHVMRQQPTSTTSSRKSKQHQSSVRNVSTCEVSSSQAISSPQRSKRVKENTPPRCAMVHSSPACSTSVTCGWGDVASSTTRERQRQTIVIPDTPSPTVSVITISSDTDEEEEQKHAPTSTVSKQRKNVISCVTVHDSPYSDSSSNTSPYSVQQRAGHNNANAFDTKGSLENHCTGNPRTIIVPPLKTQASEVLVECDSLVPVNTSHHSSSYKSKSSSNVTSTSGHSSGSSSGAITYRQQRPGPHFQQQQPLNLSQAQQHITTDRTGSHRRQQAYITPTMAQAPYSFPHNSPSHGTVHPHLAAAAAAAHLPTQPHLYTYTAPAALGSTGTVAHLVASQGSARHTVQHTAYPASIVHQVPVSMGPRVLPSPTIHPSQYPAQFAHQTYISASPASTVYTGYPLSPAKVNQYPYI
Sequence of RAC-gamma serine/threonine-protein kinase (Q9Y243 whole entry): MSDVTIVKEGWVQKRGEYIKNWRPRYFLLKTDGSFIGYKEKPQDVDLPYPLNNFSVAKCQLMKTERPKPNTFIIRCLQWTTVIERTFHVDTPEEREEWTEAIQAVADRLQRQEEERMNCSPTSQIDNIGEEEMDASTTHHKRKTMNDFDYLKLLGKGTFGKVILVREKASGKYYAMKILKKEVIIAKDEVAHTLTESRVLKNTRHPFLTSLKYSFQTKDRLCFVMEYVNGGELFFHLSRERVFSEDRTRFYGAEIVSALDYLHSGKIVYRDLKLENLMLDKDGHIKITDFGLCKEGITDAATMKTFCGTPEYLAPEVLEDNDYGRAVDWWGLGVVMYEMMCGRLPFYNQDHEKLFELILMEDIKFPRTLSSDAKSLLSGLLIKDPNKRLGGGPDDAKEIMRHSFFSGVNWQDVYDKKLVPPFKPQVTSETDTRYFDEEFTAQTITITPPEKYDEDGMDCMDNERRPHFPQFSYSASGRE
Sequence of Testis-specific serine/threonine-protein kinase 2 (Q96PF2 whole entry): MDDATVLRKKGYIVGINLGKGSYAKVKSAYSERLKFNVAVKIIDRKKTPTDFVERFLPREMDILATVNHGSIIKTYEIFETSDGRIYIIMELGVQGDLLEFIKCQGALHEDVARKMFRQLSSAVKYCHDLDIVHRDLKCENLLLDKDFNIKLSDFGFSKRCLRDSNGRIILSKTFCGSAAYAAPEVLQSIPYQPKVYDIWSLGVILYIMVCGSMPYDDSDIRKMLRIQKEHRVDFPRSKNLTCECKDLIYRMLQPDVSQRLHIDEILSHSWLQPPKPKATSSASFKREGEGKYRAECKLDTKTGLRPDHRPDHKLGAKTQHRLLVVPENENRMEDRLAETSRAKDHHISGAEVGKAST
Sequence of Protein kinase C iota type (P41743 whole entry): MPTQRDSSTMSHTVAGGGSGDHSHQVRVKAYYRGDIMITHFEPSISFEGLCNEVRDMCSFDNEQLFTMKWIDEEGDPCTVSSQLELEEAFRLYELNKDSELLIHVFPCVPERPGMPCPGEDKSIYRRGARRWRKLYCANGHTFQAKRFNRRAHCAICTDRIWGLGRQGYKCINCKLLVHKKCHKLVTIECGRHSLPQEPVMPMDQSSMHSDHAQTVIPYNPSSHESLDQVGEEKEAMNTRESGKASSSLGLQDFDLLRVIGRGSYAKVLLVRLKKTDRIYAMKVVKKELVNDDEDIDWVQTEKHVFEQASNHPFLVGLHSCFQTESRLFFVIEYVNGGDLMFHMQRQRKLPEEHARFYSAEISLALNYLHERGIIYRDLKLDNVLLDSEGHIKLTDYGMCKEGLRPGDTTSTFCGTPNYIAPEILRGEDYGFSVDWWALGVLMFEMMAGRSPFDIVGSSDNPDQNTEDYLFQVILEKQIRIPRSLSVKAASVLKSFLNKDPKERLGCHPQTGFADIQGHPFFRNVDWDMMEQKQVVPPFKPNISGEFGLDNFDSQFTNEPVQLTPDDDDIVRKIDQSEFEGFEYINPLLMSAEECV
Sequence of Tyrosine-protein kinase FRK (P42685 whole entry): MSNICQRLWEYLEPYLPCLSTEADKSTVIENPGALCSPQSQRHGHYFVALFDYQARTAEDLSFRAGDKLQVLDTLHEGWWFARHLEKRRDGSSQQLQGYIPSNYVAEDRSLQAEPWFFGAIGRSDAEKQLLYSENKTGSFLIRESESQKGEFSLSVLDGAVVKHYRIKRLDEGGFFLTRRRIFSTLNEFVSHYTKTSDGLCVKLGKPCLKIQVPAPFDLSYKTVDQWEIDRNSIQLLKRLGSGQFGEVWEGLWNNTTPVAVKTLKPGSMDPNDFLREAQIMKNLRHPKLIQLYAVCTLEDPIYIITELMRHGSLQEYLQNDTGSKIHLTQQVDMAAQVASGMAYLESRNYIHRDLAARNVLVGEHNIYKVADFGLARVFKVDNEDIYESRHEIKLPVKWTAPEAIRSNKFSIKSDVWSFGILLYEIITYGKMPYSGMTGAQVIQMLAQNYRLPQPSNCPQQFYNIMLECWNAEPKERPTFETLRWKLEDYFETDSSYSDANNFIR
Sequence of Ephrin type-A receptor 2 (P29317 whole entry): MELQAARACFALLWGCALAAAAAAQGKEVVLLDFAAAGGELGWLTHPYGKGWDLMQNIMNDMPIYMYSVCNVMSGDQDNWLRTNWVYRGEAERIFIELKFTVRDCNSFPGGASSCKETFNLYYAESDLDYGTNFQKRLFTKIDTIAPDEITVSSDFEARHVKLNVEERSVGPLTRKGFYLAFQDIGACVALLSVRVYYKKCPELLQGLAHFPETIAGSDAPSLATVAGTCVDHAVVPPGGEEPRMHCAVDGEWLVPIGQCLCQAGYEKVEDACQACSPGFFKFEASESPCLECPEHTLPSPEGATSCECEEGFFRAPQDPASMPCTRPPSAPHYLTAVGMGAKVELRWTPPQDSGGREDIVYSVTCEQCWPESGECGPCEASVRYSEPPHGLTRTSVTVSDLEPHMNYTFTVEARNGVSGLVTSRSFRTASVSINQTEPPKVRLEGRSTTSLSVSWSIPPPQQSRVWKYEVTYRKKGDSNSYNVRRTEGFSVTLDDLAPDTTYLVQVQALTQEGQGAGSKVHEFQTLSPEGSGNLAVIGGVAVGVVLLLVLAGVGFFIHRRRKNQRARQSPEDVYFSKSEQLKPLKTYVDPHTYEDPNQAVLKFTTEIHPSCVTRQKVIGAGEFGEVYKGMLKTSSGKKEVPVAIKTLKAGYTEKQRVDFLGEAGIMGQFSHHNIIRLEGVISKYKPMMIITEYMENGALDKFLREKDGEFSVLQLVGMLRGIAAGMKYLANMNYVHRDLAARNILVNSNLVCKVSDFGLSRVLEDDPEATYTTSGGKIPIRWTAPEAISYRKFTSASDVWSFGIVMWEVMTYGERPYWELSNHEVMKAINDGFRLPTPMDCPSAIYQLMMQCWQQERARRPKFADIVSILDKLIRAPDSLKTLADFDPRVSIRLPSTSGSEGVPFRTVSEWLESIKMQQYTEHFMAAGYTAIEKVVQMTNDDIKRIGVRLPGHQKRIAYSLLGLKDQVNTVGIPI
Sequence of Mitogen-activated protein kinase 13 (O15264 whole entry): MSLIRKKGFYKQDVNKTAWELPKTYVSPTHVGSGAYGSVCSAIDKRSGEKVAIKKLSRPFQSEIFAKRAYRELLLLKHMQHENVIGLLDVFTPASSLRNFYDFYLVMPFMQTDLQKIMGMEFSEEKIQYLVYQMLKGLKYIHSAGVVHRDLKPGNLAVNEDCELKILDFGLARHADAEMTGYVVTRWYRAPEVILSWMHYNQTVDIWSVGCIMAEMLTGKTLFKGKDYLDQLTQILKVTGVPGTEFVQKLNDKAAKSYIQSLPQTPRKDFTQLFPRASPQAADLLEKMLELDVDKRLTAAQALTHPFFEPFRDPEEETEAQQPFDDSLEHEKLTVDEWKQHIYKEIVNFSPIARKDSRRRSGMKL

Row | Compound | AC50 [1] | IC50 (Aminopeptidase N) | Ki (Insulin receptor) | Ki [2] | Ki [3] | Ki [4] | Ki [5] | Ki [6] | pKi [6] | Ki [7] | Ki [8] | Ki [9] | Ki [10] | Ki [11] | Ki [12] | Ki [13] | Ki [14] | Ki (Ephrin type-A receptor 2) | Ki [15] | Ki [16]
1 | CC(/C=C1\SC(=S)N(NS(=O)(=O)c2ccc(C)cc2)C1=O)=C\c1ccccc1 | > 100000 nM (inactive) | 64000 nM (active) |  |  |  |  |  |  |  |  |  |  |  |  |  |  |  |  |  | 
2 | CN1CCC(c2c(O)cc(O)c3c(=O)cc(-c4ccccc4Cl)oc23)C(O)C1 (stereo not given) |  |  | > 5010 nM (inactive) | > 1580 nM (inactive) | > 7940 nM (inactive) | > 2510 nM (inactive) | > 3980 nM (inactive) | 2000 nM (active) | 5.7 | > 10000 nM (inactive) | 5010 nM (active) | 1260 nM (active) | > 10000 nM (inactive) | > 2000 nM (inactive) | > 1580 nM (inactive) | > 5010 nM (inactive) | 251 nM (active) | 2000 nM (active) | 501 nM (active) | 1000 nM (active)
